The subject of one series is male Wistar rats. As to the kind of experiment: Opioid hyperalgesia in tail and paw withdrawal tests (% rats).
Series [1] relates to Wistar rats. Briefly: Open field test, hypokinetic (sedative) or hyperkinetic action (analgesia examples). The note with it: for Hyperkinesia or sedation / Hyperkinesia / Hyperkinesia or sedataion: unmarked cells; for Hyperkinesia or sedation: doses as E6; for Horizontal locomotive activity: control 16.1; for Hyperkinesia or sedataion: doses as E12. Here is the method: (§1) To evaluate the hypokinetic (sedative) or hyperkinetic action effects of tested drugs an “open field” (OF) test was applied. In the OF test, the locomotive activity of rats is determined. Animals were placed in the center of square of the illuminated field (1 meter×1 meter) for 3 minutes and the mobility time was recorded in seconds (horizontal activity). […] To quantify the locomotive activity for each dose of test drug(s) an average horizontal activity was calculated.
as §1
To evaluate the hypokinetic (sedative) effects of drugs, “open field” (OF) test was applied. In the OF test, the locomotive activity of rats is determined. Animals were placed in the center of square of the illuminated field (1 meter×1 meter) for 3 minutes and the mobility time was recorded in seconds (horizontal activity). […] To quantify the locomotive activity for each dose of test drug(s), an average horizontal activity was calculated.
Tail-Flick and Open Field Tests were Conducted as Detailed Above.
as §1

For series [2], the system named is Wistar rats. As to the kind of experiment: Open field test, hyperkinetic side effects (haloperidol catalepsy examples). Type of series: in vivo, rat. The note with it: oral. Here is the method: To evaluate the side hyperkinetic effects of drugs, the test an “open field” (OF) test was applied. […] To quantify the locomotive activity for each dose of the test drug(s), an average horizontal activity was calculated.

Series [3] deals with Wistar rats. Briefly: Rotenone-induced PD: severe oligokinesia in open field test. The class given is in vivo, rat. The note with it: for Severe oligokinesia (% of group): phenylephrine 0.3 mg/kg oral, oligokinesia ++-+++ in OF test; for Severe oligokinesia, Day 12 / Severe oligokinesia, Day 19: control 100. Here is the method:
Locomotive activity of rats was tested in the “open field” test. […] Registration of horizontal and vertical locomotive activity was carried out in first day for rats with high selection locomotive activity (total walking time with not less than 12 seconds and the number of vertical uprights at least 4), 60 minutes before the first administration of rotenone. To identify the rotenone-induced oligokinesia in each experimental group the locomotive activity in the open field test was examined again 2 hours after the administration of rotenone on days 12 and 19 of the experiment.
(§2) Quantification of oligokinesia in points: 0 points—the highest horizontal activity (walking total time more than 12 seconds) and high vertical activity (number of vertical posts) more than 3; 1 point—reducing the horizontal activity (total walking time 7-11 seconds) and a decrease in vertical activity (the number of vertical columns 1-3); 2 points—a significant reduction in horizontal activity (total walking time 2-6 seconds) and the absence of vertical activity (the number of vertical columns 0-1); 3 points—the absence of horizontal activity (total walking time 0-1 seconds) and the absence of vertical activity (number of vertical columns 0). In each experimental group 120 minutes after administration of rotenone on days 12 and 19 of experiment the number of rats with severe oligokinesia (2-3 points) in % of the total number of rats in group was determined.
Locomotive activity of rats was tested in the “open field” test. […] Registration of horizontal and vertical locomotive activity was carried out in first day for rats with high selection locomotive activity (total walking time with not less than 12 seconds and the number of vertical uprights at least 4), 60 minutes before the first administration of rotenone. To identify the rotenone-induced oligokynesia in each experimental group the locomotive activity in the open field test was examined again 2 hours after the administration of rotenone on days 12 and 19 of the experiment.
as §2, with “of oligokynesia” for “of oligokinesia”

Series [4] deals with Wistar rats. Briefly: Rotenone model: hyperkinetic side effect in open field test (days 10 and 18). The class given is in vivo, rat. The note with it: for Hyperkmesia (% of group): phenylephrine 0.3 mg/kg oral. Here is the method:
Anti-parkinsonian effect of therapy in rats with rotenone-induced PD was estimated according to elimination of extrapyramidal disorders (catalepsy) and oligokinesia (rapid decreased amplitude and velocity of repeated movements) in the “open field” test. The neuro-protective effect of therapy was evaluated by the elimination of ataxia limb dystonia and mortality in rats with rotenone-induced PSP. Hyperkinetic side action (hyper-locomotion) was evaluated by increased horizontal and vertical activity in the open field at the 10th and 18th day of the experiment, calculated in % compared to the first day of the experiment.
Ataxia and limb dystonia registration was performed twice daily, 30 minutes before administration of rotenone and 180 minutes after administration of rotenone. For each experimental group on a daily basis, throughout the whole period of observation number of rats with severe ataxia and limb dystonia (++−+++) and mortality in % of the total number of rats in group was determined. The neuro-protective effect of therapy (effects on rate of ataxia, limb dystonia and lethality) in rats with PSP was determined at days 12 and 19 of the experiment as reducing the number of rats with severe ataxia limb dystonia and mortality in % compared to control. Side hyperkinetic effects were evaluated in the “open field” test. In this test the locomotive activity in rats is determined. […] Registration of horizontal and vertical locomotive activity in OF assay was performed on the 10th and 18th day of the experiment, within 40 minutes after administration of the substance and 5 minutes before administration of rotenone. Side hyperkinetic effects was evaluated by the number of rats with a significant (at least 50% compared with the first day of the experiment) increase in horizontal and vertical activity (hyperkinesia) as a % of the total number of rats in group.
Anti-parkinsonian effect of therapy in rats with rotenone-induced parkinsonism was estimated according to elimination of extrapyramidal disorders (catalepsy) and oligokinesia in the “open field” test. The neuro-protective effect of therapy was evaluated by the elimination of ataxia and mortality in rats with rotenone-induced PSP. Hyperkinetic side action (hyper-locomotion) was evaluated by increased horizontal and vertical activity in the open field at the 10th and 18th day of the experiment, calculated in % compared to the first day of the experiment.
The neuro-protective effect in the experimental groups of rats with rotenone-induced PSP was evaluated due the elimination of ataxia and mortality caused by neurotoxic action of rotenone. Ataxia is typical incoordination neurotoxic effect of rotenone manifested in uncoordinated movements and hyper-locomotion, replaced by hypokinesia and stereotypes, and in severe cases a complete violation of antigravity reflexes, falling on its side and akinesia. Assessment of the severity of ataxia in scores was performed using the following scale: (+) uncoordinated movement, hyperkinesia; (++) significant incoordination, hypokinesia, stereotypes, falling on its side; (+++) complete violation of antigravity reflexes, akinesia. Ataxia registration was performed twice daily, 30 minutes before administration of rotenone and 180 minutes after administration of rotenone. For each experimental group on a daily basis, throughout the whole period of observation number of rats with severe ataxia (++−+++) and mortality in % of the total number of rats in group was determined. The neuro-protective effect of therapy (effects on rate of ataxia and lethality) in rats with PSP was determined at days 12 and 19 of the experiment as reducing the number of rats with severe ataxia and mortality in % compared to control. Side hyperkinetic effects were evaluated in the “open field” test. In this test the locomotive activity in rats is determined. […]

“And” between values parts separate entries of the source, which are not always exact repeats. Identical values can stand only once. Like-named read-outs stand apart in the source and are kept apart here.

In the case of `CNC[C@H](O)c1ccc(O)c(O)c1` [Epinephrine, epinephrine], the Hyperalgesia in the series on male Wistar rats (doses as E6) and in the series on male Wistar rats (doses as E48) was 0 % rats each time. The “Locomotive horizontal activity in open field” value in the series with Wistar rats [1] (I.M., control 15.6, doses by row as E32) is 15.4 s and 15.9 s and 17.6 s. In addition, the Sedation in the series with Wistar rats [1] (I.M., doses by row as E3) was 0 % of Rats; in the series on Wistar rats [1] (I.M., doses by row as E32) it was 0% of group. In the series on Wistar rats [1], this molecule gave a Hyperkinesia or sedation of 0 % rats. In addition, the Hyperkinesia in the series on Wistar rats [1] (doses as E48) was found to be 0 % rats.
Take `CN1CC[C@]23c4c5ccc(O)c4O[C@H]2[C@@H](O)C=C[C@H]3[C@H]1C5` [Morphine, morphine]: the Horizontal locomotive activity in the series on Wistar rats [1] (oral, doses as E35) was 15.5 s and 13.2 s and 7.8 s. In the series with Wistar rats [1], this molecule showed a Hyperkinesia or sedation of 0 % rats and a Hyperkinesia or sedataion of 0 % rats. In the series with Wistar rats [1] (doses as E48), this molecule gave a Hyperkinesia of 0 % rats. The Hyperkinesia in the series with Wistar rats [1] (doses as E54) amounted to 0 % rats.
For the molecule `CN(C)CCC=C1c2ccccc2CCc2ccccc21` [Amitriptyline, amitriptyline], the Hyperalgesia with male Wistar rats (doses as E12) and in the series with male Wistar rats (doses as E54) was 0 % rats throughout. Moreover, the Hyperkinesia or sedataion with Wistar rats [1] amounted to 0 % rats. Moreover, the Hyperkinesia in the series on Wistar rats [1] (doses as E54) came to 0 % rats.
As for `Cc1c(N(C)CS(=O)(=O)[O-])c(=O)n(-c2ccccc2)n1C.[Na+]` [Dipyrone, dipyrone], the Hyperalgesia in the series on male Wistar rats (doses as E12) and in the series on male Wistar rats (doses as E54) was 0 % rats each time. The same molecule came in with a Hyperkinesia or sedataion in the series with Wistar rats [1] of 0 % rats. For the same molecule, the Hyperkinesia with Wistar rats [1] (doses as E54) amounted to 0 % rats.
Consider `CNC[C@H](O)c1cccc(O)c1` [Phenylephrine, phenylephrine], for which the Hyperalgesia in the series on male Wistar rats (doses as E12) and in the series with male Wistar rats (doses as E54) was 0 % rats in each case. The Hyperkinesia was 0 % of Rats with Wistar rats [2] (doses by row as E18); 0 % of Rats with Wistar rats [2] (doses by row as E30); 0 % of Rats in the series on Wistar rats [2] (doses by row as E60); 0 % of Rats in the series on Wistar rats [2] (open field 40 min after dosing, doses by row as E1); 0 % rats in the series on Wistar rats [1] (doses as E54). In addition, the Horizontal locomotive activity in the series on Wistar rats [1] (oral, doses as E35) was 15.9 s and 16.3 s and 17.9 s. In addition, the Sedation with Wistar rats [1] (oral, doses as E35) is listed as 0% of group. Also, the Hyperkinesia or sedataion in the series with Wistar rats [1] was 0 % rats. The “Severe oligokinesia (% of group)” value is on record as 86 % of group in the series with Wistar rats [3] (Day 12) and 100 % of group in the series with Wistar rats [3] (Day 19). Also, the “Severe oligokinesia, Day 12” value in the series with Wistar rats [3] is 86 % of group; in the series on Wistar rats [3] (doses as E38), 90 % of group. Besides, the “Severe oligokinesia, Day 19” value with Wistar rats [3] and with Wistar rats [3] (doses as E38) was 100 % of group each time. Also, the “Hyperkinesia, Day 18” value in the series on Wistar rats [4] and in the series with Wistar rats [4] (doses as E38) was 0 % of group throughout. For the same molecule, the “Hyperkmesia (% of group)” value was 0 % of group in the series with Wistar rats [4] (Day 10, locomotive activity in OF test increased more than 50% vs first day) and 0 % of group with Wistar rats [4] (Day 18, locomotive activity in OF test increased more than 50% vs first day). Further, the “Hyperkinesia, Day 10” value in the series with Wistar rats [4] (doses as E38) and in the series on Wistar rats [4] (locomotive activity in OF test increased more than 50% vs first day) was 0 % of group throughout.

The values are drawn from patent US20200188388A1, “METHODS AND COMPOSITIONS FOR PO[…] DRUGS AND REDUCING THEIR SIDE EFFECTS” (RVX THERAPEUTICS LTD., priority 2016, published 2020).
